For data set [1], the system named is E. coli strain 1A1. Description: Broth dilution assay (antibiotic assay), growth at 600 nm after 24 h. Type of data set: cell-based. As to the method: (§1) To determine if the antibacterial activity of 5 was due to pH effects, an additional broth dilution assay was performed using sodium hydroxide as a positive control.
E. coli strain 1A1 [43] was obtained from the microbial strain repository at the Joint Bioenergy Institute at Lawrence Berkeley National Laboratory. A 10 mL culture in Luria Broth (LB) media was grown for 18 h at 37 °C with shaking at 200 rpm. The culture was then diluted into LB media to an absorbance of 0.05 at 600 nm, and added into the wells of a 96-well plate (first row = 190 µL, all other wells = 100 µL/well). Approximately 700 mg of IL was dissolved into 1 mL of methanol, and 10 µL of each IL solution was added to first row wells of the plate. A twofold serial dilution was performed down the plate by mixing and transferring 100 µL using a multi-channel pipette. To maintain isochoric conditions, 100 µL was discarded from bottommost wells. The plate was then incubated at 37 °C with shaking at 150 rpm. After 24 h incubation, E. coli growth was quantified at 600 nm using an Epoch Microplate Spectrophotometer (Gen5 software). […] All experiments were repeated 3–7 times and error bars in Fig. 5 represent standard deviation. Statistical F-test was performed to determine the appropriate t-test (i.e., equal or unequal variance) to analyze significant difference between IC50 data.
For orientation: Broth dilution looks for growth in wells or tubes with falling amounts of substance.

Data set [2] can be described thus: pH of LB media at the IC50 concentration. Type of data set: physicochemical. As to conditions: at IC50 against E. coli. As to the method:
as §1

The subject of data set [3] is Daphnia magna. Put plainly: 48-h acute toxicity study on D. magna. Type of data set: in vivo. The settings on record: for IC50: Daphnia magna, 48 h, read-out: IC50 against D. magna. As to the method:
Procedures for cultivating and performing acute toxicity assays with D. magna generally followed the US EPA protocol. Daphnia magna was cultured from stocks supplied by Aquatic Bio Systems Inc. (Fort Collins, CO). The organisms were cultured in 900-mL jars filled with moderately hard water from the recipe: 0.473 g CaSO4, 0.959 g NaHCO3, 1.223 g MgSO4·7H2O, and 0.039 g KCl per 10 L of deionized water. 2 mL of algae (Selenastrum capriconutum) containing 3.0 × 10^7 cells/mL were fed to D. magna on both Tuesdays and Thursdays with water changes as well as feedings on Saturdays. All glass jars were placed in a Thermo Scientific Precision incubator (Fischer Scientific, Hampton, NH) at a holding temperature of 20 °C and on a 12 h:12 h light:dark cycle. This procedure was conducted approximately a month prior to the beginning of the project. To prepare D. magna for use in acute experiments, three hundred adult daphnids were separated into five 1-L beakers with 60 daphnids each. These daphnids were used a week later in the experiment. All daphnid cultures followed the same protocol for feeding and water changes as mentioned previously.
A 48-h acute toxicity study was carried out to examine the toxic effects of 11 and 12 on D. magna, Glass jars were filled with moderately hard water and spiked with the appropriate concentration of IL from stock solution to a total volume of 50 mL. For each IL, 5 different concentrations were studied. Control jars were set up with only 50 mL of moderately hard water. Four replicates were used for each concentration and each replicate had four daphnids. The daphnids were placed into glass jars for each concentration of ILs. All glass jars were placed in a Thermo Scientific Precision incubator (Fischer Scientific, Hampton, NH) at a holding temperature of 20 °C and on a 12 h:12 h light:dark cycle. Mortality in each jar was recorded every 24 h.

The mark [4] stands for this setting: E. coli strain 1A1, LB media, 24 h, 37 °C, read-out: IC50 (concentration of IL required to decrease bacterial growth by 50%).
[5] abbreviates: Escherichia coli, 1A1, 24 h, E. coli strain 1A1, LB media, 24 h, 37 °C, read-out: IC50 (concentration of IL required to decrease bacterial growth by 50%).

Consider twelve compounds from paper PMC7900799, “Synthesis, antibiotic structure–activity relationships, and cellulose dissolution studies of new room-temperature ionic liquids derived from lignin” (Biotechnology for Biofuels, 2021).

Where two headings read alike, the source gives them in different places.

`C[N+](C)(C)Cc1ccccc1` [Compound 5, benzyltrimethylammonium hydroxide, reference compound]: the IC50 in data set [1] (setting [4]) is 10.4 ± 0.3 mM. Besides, in data set [2], the “pH of LB media at the IC50 concentration” value came to 8.5.
The corresponding values for `[Na+].[OH-]` [NaOH, sodium hydroxide, reference compound] are 25.5 mM and 9.4.
Take `COc1cc(C[N+](C)(C)C)cc(OC)c1OC` [Compound 7]: the IC50 in data set [1] (setting [5]) is 22.2 ± 0.8 mM.
In the case of `CCCC[N+](CCCC)(CCCC)CCCC` [Compound 2, Tetrabutylammonium acetate], the IC50 in data set [1] (Escherichia coli, 1A1, 24 h, read-out: IC50 (concentration of IL required to decrease bacterial growth by 50%), E. coli strain 1A1, LB media, 24 h, 37 °C) was found to be 13.2 ± 2.9 mM.
Take `CCCC[N+](CCCC)(CCCC)CCCC` [Compound 3, tetrabutylammonium bromide, reference compound]: the IC50 in data set [1] (read-out: IC50 (concentration of IL required to decrease bacterial growth by 50%), E. coli strain 1A1, LB media, 24 h, 37 °C) is 10 ± 1.3 mM.
For `CC[N+](C)(CC)Cc1ccc(OC)c(OC)c1` [Compound 9, N-(3,4-Dimethoxybenzyl)-N-ethyl-N-methylethanaminium acetate], the IC50 in data set [1] (setting [5]) stood at 19.6 ± 0.4 mM.
In the case of `COc1ccc(C[N+](C)(C)C)cc1OC` [Compound 11], the “fold reduction of toxicity of the methanesulfonate compared with the acetate anion (8)” value in data set [1] (E. coli, vanillin-derived N,N,N-trimethyl cation) came to 1.6 fold. The IC50 was 78.7 ± 2.5 mM in data set [1] (Escherichia coli, 1A1, 24 h, read-out: IC50 (concentration of IL required to decrease bacterial growth by 50%)) and 0.319 ± 0.066 mM in data set [3]. Further, the “fold by which IC50 against D. magna is lower than IC50 against E. coli” value in data set [3] (0.319 mM vs 78.7 mM) is on record as “approximately 250 fold”.
Turning to `C[N+](C)(C)Cc1ccccc1` [Compound 4, Benzyltrimethylammonium acetate], the IC50 in data set [1] (setting [4]) came out at 47.8 ± 0.6 mM.
`COc1ccc(C[N+](C)(C)C)cc1` [Compound 6]: the IC50 in data set [1] (setting [5]) is 11.6 ± 1.7 mM.
`COc1cc(C[N+](C)(C)C)cc(OC)c1OC` [Compound 12]: in data set [3] (48-h acute toxicity), the “fold more toxic to D. magna than vanillin-derived IL 11” value is 2.6 fold. Further, the IC50 in data set [3] worked out at 0.123 ± 0.012 mM.
As to `CCC[N+](C)(CCC)Cc1ccc(OC)c(OC)c1` [Compound 10, N-(3,4-Dimethoxybenzyl)-N-methyl-N-propylpropan-1-ammonium acetate], the IC50 in data set [1] (setting [5]) came to 17.7 ± 0.9 mM.
`COc1ccc(C[N+](C)(C)C)cc1OC` [Compound 8]: in data set [1] (setting [5]), the IC50 was 48.2 ± 3.3 mM.
